Experimental data from patent publication US20240093236A1, “RAPID HIGH THROUGHPUT SCREENING SYSTEM TO ASSESS POTENTIAL TREATMENTS FOR SPORADIC ALZHEIMER’S DISEASE” (Trustees of Tufts College, priority 2021, published 2024).
Entries after “also recorded” stand apart in the source; their conditions may differ. Structures can show the parent of a compound that is named as a salt.

Legend:
[1] = system: HSV-1; assay: HSV-1 infection of hiNSCs with VCV treatment (HSV immunostaining, qPCR for HSV-UL29); type: cell-based, herpes simplex virus type 1
Description: (§1) hiNSC colonies were trypsinized off of MEF feeder layers using TrypLE (Invitrogen) and then dissociated by manual pipetting. Cell suspensions were passaged through a 40- to […] cell strainer to remove larger aggregates. Dissociated hiNSCs were cultured on gelatin-coated plates in neurobasal media supplemented with 2% B27 (Invitrogen), 1% glutamax, and 1% antibiotic-antimycotic. For HSV infection, we used purified HSV-1 to directly infect hiNSCs at a range of MOIs (0.00001 to 1), which was calculated based on the starting virus concentration (2×10^7 PFU/ml) and initial seeding density.
(§2) Once added to media, inoculum was allowed to remain in cell cultures for the duration of the experiment to mimic low-level brain infection. For mock infections, an equal volume of control culture medium from uninfected Vero cells was used. All virus work was approved by the Tufts Institutional Biosafety Committee. Valacyclovir (VCV) HCl was reconstituted in dH2O and used at a concentration of 200 μM for all subsequent experiments. […]
(§3) Total RNA was isolated using the RNeasy Mini Kit (Qiagen). […] Quantitative reverse transcription PCR (qRT-PCR) was performed using SYBR Green and the CFX96 Real-Time PCR Detection System (Bio-Rad) and normalized against the housekeeping gene glyceraldehyde phosphate dehydrogenase. […]

[2] = system: HSV-1-infected hiNSCs; assay: Gliosis and neuroinflammation (GFAP, TNFα) in HSV-1-infected hiNSCs, immunostaining and qPCR; type: cell-based, human
Description: as §1, §2, §3

[3] = system: hiNSCs; assay: Conditioned media (CM) experiment: reactive glia formation in new hiNSCs, TUJ1 and GFAP immunostaining; type: cell-based, human; conditions: VCV in virus CM with fresh HSV-1; new hiNSCs cultured for 4 days
Description: Cells grown in tissue culture plates or in 3D scaffolds were fixed in 4% paraformaldehyde and washed with 1×phosphate-buffered saline (PBS). Samples were incubated with a blocking buffer consisting of PBS, 10% goat serum, and 0.1% Triton X-100. Primary antibodies were added to the blocking buffer and incubated with samples overnight at 4° C. The next day, samples were washed several times with PBS and incubated with a corresponding fluorescently conjugated secondary antibody in a blocking buffer for 1 hour at room temperature. Nuclei were counterstained with 4′,6-diamidino-2-phenylindole (Invitrogen).
Moreover, we aimed to understand whether HSV-1-secreted factors could cause gliosis even in the absence of infection (FIG. 7). CM were harvested and filtered from mock- or HSV-1-infected hiNSCs that had been cultured for 2 days. Fresh HSV-1 virus was added to CM in the absence or presence of antiviral treatment VCV, and new hiNSCs were cultured for 4 days. β-III tubulin (TUJ1) and GFAP immunostaining was performed to visualize neurons and glia, respectively.

[4] = system: APP, BACE1, PSEN1, and PSEN2; assay: qPCR expression of AD mediators (APP, BACE1, PSEN1, PSEN2) in HSV-1-infected hiNSCs; type: cell-based, human; conditions: HSV-1 MOI 0.0001
Description: as §1, §2, §3

[5] = system: hiNSCs; assay: VCV alone in the absence of virus on hiNSCs; type: cell-based, human; conditions: 200 μM VCV alone, no virus (data not shown)
Description: (§4) Once added to media, inoculum was allowed to remain in cell cultures for the duration of the experiment to mimic low-level brain infection. For mock infections, an equal volume of control culture medium from uninfected Vero cells was used. All virus work was approved by the Tufts Institutional Biosafety Committee. Valacyclovir (VCV) HCl was reconstituted in dH2O and used at a concentration of 200 μM for all subsequent experiments. VCV was added at day 0 (D0; concurrently with HSV-1 infection) or day 1 (D1; 24 hours after infection).
One of the most commonly used antiviral agents for treating HSV-1 infections is VCV, which specifically targets viral DNA replication in infected cells. We cultured hiNSCs for 4 days before subjecting to either mock or HSV-1 infection (MOI 0.0001). […] We first immunostained against HSV and Aβ (FIG. 4A) to determine any differences in the rate of HSV-1 infection and PLF generation in response to drug treatment.

[6] = system: HSV-1-infected hiNSCs; assay: Aβ+ plaque-like formations (PLFs) in HSV-1-infected hiNSCs, immunostaining; type: cell-based, human; conditions: 200 μM VCV, MOI 0.0001, HCl
Description: as §1, §4
Cells grown in tissue culture plates or in 3D scaffolds were fixed in 4% paraformaldehyde and washed with 1×phosphate-buffered saline (PBS). Samples were incubated with a blocking buffer consisting of PBS, 10% goat serum, and 0.1% Triton X-100. […]

[7] = system: HSV-1-infected hiNSCs; assay: Latency model of HSV-1 infection in hiNSCs (acute infection followed by antiviral treatment), qPCR; type: cell-based, human; conditions: acute HSV-1 infection 24 hrs followed by antiviral treatment (latency induction)
Text: A) Schematic of timeline of HSV-1 and antiviral treatments to induce latency. Acute infection of hiNSCs with HSV-1 for 24 hrs. followed by antiviral treatment results in similar expression patterns of typical AD markers as described previously (B-D). E) This treatment also results in quantifiable expression of HSV-1 latency associated transcript (LAT).
HSV-1 typically lies latent in the peripheral nervous system indefinitely, and it is only upon reactivation that this virus can exert its detrimental effects such as cold sores and potentially neurodegeneration. Understanding potential triggers of this viral reactivation are crucial in elucidating downstream pathways involved in disease pathogenesis. There are currently few if any suitable in vitro models of HSV-1 latency. Here, we describe a method with which to induce latency of HSV-1 in vitro. […] Induction of latency with valacyclovir was also associated with an increase in glial fibrillary acidic protein (GFAP) expression (FIG. 21D), which is indicative of gliosis.

## CC(C)[C@H](N)C(=O)OCCOCn1cnc2c(=O)[nH]c(N)nc21 [VCV, Valacyclovir HCl]
[1]; 200 μM VCV at D0 (concurrently with HSV-1 infection), MOI 0.0001
  HSV-1 infection: almost completely abolished infection
[1]; 200 μM VCV, both drug regimens (D0 or D1), HSV-1 MOI 0.0001, hiNSCs, HCl
  HSV-1 infection (immunostaining and qPCR for HSV-UL29): significant decrease; also recorded: reduces HSV-1 infection
[2]; 200 μM VCV at D0
  GFAP expression (immunostaining and qPCR): almost completely restored
[2]; 200 μM VCV, both D0 and D1 dosing regimens
  pro-inflammatory mediator TNFα: significantly reduced
[3]
  reactive glia formation: increased reactive glia formation
[4]; 200 μM VCV at D0
  expression of AD mediators APP, BACE1, PSEN1 and PSEN2 (qPCR): nearly rescued all markers back to control values
[4]; 200 μM VCV at D1 (24 hours after infection)
  expression of AD mediators APP, BACE1, PSEN1 and PSEN2 (qPCR): partial rescue
[5]
  effect on hiNSCs in the absence of virus: no discernible effect
[6]
  average number of PLFs: significantly reduced; also recorded: decrease
  average size (area) of PLFs: significantly reduced; also recorded: decrease
[7]
  HSV-1 latency associated transcript (LAT): significant increase
  PSEN2 expression: significant increase
  glial fibrillary acidic protein (GFAP) expression: increase
